Biological target: T1, HCN4 (Homo sapiens, UniProt Q9Y3Q4)
T1 sequence (Q9Y3Q4 1-1203): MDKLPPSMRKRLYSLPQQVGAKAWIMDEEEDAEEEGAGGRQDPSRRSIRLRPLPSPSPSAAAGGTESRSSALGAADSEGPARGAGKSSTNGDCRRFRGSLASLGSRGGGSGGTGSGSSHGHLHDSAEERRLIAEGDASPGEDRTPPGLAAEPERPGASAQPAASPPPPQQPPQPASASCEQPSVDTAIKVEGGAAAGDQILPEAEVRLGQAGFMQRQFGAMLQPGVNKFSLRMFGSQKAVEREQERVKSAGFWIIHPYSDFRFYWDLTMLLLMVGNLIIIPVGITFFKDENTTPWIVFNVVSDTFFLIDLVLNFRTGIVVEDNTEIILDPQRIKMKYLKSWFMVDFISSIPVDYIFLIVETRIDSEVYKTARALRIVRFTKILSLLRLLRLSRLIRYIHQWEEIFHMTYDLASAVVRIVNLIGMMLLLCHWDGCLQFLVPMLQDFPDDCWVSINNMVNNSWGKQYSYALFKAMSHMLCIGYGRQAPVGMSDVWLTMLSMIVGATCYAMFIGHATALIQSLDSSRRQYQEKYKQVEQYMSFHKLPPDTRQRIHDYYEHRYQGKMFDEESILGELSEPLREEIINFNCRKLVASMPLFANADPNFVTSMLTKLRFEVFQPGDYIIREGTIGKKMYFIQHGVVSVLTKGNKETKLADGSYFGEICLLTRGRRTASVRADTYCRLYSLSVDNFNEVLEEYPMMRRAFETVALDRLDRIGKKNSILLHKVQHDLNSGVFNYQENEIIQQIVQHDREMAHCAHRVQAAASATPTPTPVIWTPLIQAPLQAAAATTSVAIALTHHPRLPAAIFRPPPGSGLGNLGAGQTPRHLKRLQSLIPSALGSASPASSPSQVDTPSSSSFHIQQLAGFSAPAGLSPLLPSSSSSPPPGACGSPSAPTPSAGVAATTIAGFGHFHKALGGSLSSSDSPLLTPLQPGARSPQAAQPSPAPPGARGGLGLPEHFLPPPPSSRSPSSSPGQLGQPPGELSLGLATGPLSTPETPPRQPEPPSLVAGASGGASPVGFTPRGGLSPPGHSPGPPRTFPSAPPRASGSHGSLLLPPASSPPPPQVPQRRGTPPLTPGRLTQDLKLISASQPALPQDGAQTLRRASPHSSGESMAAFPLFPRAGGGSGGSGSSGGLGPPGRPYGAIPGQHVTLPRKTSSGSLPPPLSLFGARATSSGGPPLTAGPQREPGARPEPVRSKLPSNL
Test: Whole-cell patch-clamp, HCN4 currents in stably transfected CHO cells
Format: cell-based
Design: expressed in transfected cells; host or cells: CHO (ATCC CCL-61), stably transfected; selection with Hygromycin and Geneticin
Procedure: [drawing 92] i.e. 4-[5-[3-Chloro-5-(trifluoromethoxy) phenyl]-1-(pyridin-3-yl)-1H-pyrazol-3-yl]-5,6-dihydro-7H-pyrrolo[3,4-d]pyrimidin-7-one, was tested for its effects on human Nav1.5, Cav1.2, Kv1.5, and HCN4 currents recorded from stably transfected CHO cells. The effect of four concentrations of this compound on these currents was investigated.
The whole-cell patch-clamp technique was used to investigate the effect of Compound A on the currents of Nav1.5, Kv1.5, Cav1.2 and HCN4 channels, expressed in CHO cells (ATCC, CCL-61). Compound A was tested at concentrations of 200 nM, 600 nM, 2000 nM and 6000 nM. For all ion channels 0.1% DMSO was used as vehicle and ZD7288 as suitable blockers were applied to assure accuracy of the method. The selection antibiotics can be dervied from the Table below:
Concentrations of 200 nM, 600 nM, 2000 nM and 6000 nM of Compound A were tested. […]
The 35 mm culture dishes upon which cells were seeded at a density allowing single cells to be recorded were placed on the dish holder of the microscope and continuously perfused (at approximately 1 mL/min) with the bath solution described in section 4.7. […]
As soon as a stable seal could be established outward tail currents were measured upon pulses described in the Table below: […]
Values in Ampere (A) of the peak amplitudes of outward tail currents were generated for each voltage step. […] The recorded current amplitudes at the steady state level of current inhibition were compared to those from control conditions measured in the pre-treatment phase of the same cell. The amount of current block was calculated as percentage of control. To determine whether the observed current inhibition was due to Compound A-interaction with the respective ion channel or due to current rundown, these residual currents were compared to those measured in vehicle treated cells. Data from at least two individual experiments were collected and the corresponding mean values and standard deviations were calculated. […]

O=C1NCc2c1ncnc2-c1cc(-c2cc(Cl)cc(OC(F)(F)F)c2)n(-c2cccnc2)n1 [Compound A, 4-[5-[3-Chloro-5-(trifluoromethoxy)phenyl]-1-(pyridin-3-yl)-1H-pyrazol-3-yl]-5,6-dihydro-7H-pyrrolo[3,4-d]pyrimidin-7-one]
reduction of the current amplitude (HCN4) (at ≤ 6 µM): more than 30% | Hill coefficient (HCN4) (stably transfected CHO cells): 1.15 | IC50 (stably transfected CHO cells, 200, 600, 2000, 6000 nM tested): 879 nM
